Assay results as given in patent US10010539B2, “Pyrazole, triazole and tetrazole orexin receptor antagonists” (MERCK SHARP & DOHME CORP., priority 2014, dated 2018).

Tests used:
[1] = biological target: hOXIR (orexin-1 receptor) (Homo sapiens, UniProt O43613); assay: FLIPR Ca2+ Flux Assay, orexin-1 receptor (hOXIR FLIPR); format: cell-based; conditions: CHO cells expressing the orexin-1 receptor (method text: rat; table head: hOXIR); agonist 70 pM Ala-6,12 human orexin-A
In short: (§1)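 Calcium flux in CHO cells bearing rat orexin-1 or human orexin-2 receptor; antagonist 5 min, then 70 pM Ala-6,12 orexin-A. Buffer HBSS, 20 mM HEPES, 0.1% BSA, 2.5 mM probenecid, pH7.4. Read-out: peak fluorescence, IC50.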

human orexin-2 receptor = human orexin-2 receptor (Homo sapiens (Human), UniProt O43614); assay: FLIPR Ca2+ Flux Assay, orexin-2 receptor (hOX2R FLIPR); format: cell-based; conditions: CHO cells expressing the human orexin-2 receptor; agonist 70 pM Ala-6,12 human orexin-A
Chain of human orexin-2 receptor (O43614 whole entry): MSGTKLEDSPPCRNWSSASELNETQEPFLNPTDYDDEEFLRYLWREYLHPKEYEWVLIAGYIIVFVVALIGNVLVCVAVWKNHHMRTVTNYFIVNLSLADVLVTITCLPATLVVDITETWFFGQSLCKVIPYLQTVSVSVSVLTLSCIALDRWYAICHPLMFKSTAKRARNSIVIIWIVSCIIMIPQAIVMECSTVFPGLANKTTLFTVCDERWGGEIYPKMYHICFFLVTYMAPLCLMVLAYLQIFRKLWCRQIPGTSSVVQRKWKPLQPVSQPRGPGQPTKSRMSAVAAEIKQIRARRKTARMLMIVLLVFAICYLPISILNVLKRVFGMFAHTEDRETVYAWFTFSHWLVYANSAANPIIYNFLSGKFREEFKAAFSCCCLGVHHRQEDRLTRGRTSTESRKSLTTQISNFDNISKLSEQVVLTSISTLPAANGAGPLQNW
In short: as §1

Row | SMILES | IC50 [1] [nM] | IC50 (human orexin-2 receptor) [nM]
1 | C[C@@H]1CC[C@@H](n2cc(C(C)(C)O)cn2)CN1C(=O)c1ccccc1C1CCC1 [Example 87, 2-(1-{(3R,6R)-1-[(2-Cyclobutylphenyl)carbonyl]-6-methylpiperidin-3-yl}-1H-pyrazol-4-yl)propan-2-ol] | 3290 | 49.3
2 | C[C@@H]1CC[C@@H](n2cc(C(C)(C)O)cn2)CN1C(=O)c1ccccc1-n1cccn1 [Example 93, 2-{1-[(3R,6R)-6-Methyl-1-{[2-(1H-pyrazol-1-yl)phenyl]carbonyl}piperidin-3-yl]-1H-pyrazol-4-yl}propan-2-ol] | > 10000 | 92.7
3 | C[C@@H]1CC[C@@H](n2ncc([C@H](O)C(F)(F)F)n2)CN1C(=O)c1ccccc1-n1nccn1 [Example 26, (2-(2H-1,2,3-triazol-2-yl)phenyl) ((2R,5R)-2-methyl-5-(4-((S)-2,2,2-trifluoro-1-hydroxyethyl)-2H-1,2,3-triazol-2-yl)piperidin-1-yl)methanone] | > 10000 | 86.7
4 | C[C@@H]1CC[C@@H](n2ncc(C(C)(C)O)n2)CN1C(=O)c1nccnc1-c1ccccn1 [Example 42, 2-(2-{(3R,6R)-6-methyl-1-[(3-pyridin-2-ylpyrazin-2-yl)carbonyl]piperidin-3-yl}-2H-1,2,3-triazol-4-yl)propan-2-ol] | > 10000 | 622
5 | C[C@@H]1CC[C@@H](n2cc(C(C)(C)O)cn2)CN1C(=O)c1cccnc1OCC(F)(F)F [Example 94, 2-{1-[(3R,6R)-6-Methyl-1-{[2-(2,2,2-trifluoroethoxy)pyridin-3-yl]carbonyl}piperidin-3-yl]-1H-pyrazol-4-yl}propan-2-ol] | > 10000 | 37
6 | C[C@@H]1CC[C@@H](n2cc(C(C)(C)O)cn2)CN1C(=O)c1cccnc1-c1ccccc1 [Example 92, 2-(1-{(3R,6R)-6-Methyl-1-[(2-phenylpyridin-3-yl)carbonyl]piperidin-3-yl}-1H-pyrazol-4-yl)propan-2-ol] | > 10000 | 195
7 | CC(C)c1ccccc1C(=O)N1C[C@H](n2ncc(C(C)(C)O)n2)CC[C@H]1C [Example 5, ((2R,5R)-5-(4-(2-Hydroxypropan-2-yl)-2H-1,2,3-triazol-2-yl)-2-methylpiperidin-1-yl)(2-isopropylphenyl)methanone] | > 10000 | 71.3
